According to patent US10793588B2, “Crystal form of sodium-glucose cotransporter 2 inhibitor” (HAINAN XUANZHU PHARMA CO., LTD., priority 2016, dated 2020):

Test: Stability test of crystalline Form I and free compound (properties, relevant substances by HPLC, XRD)
Type: physicochemical
Protocol: The crystalline Form I of the co-crystal of the compound of Formula (1) with L-proline, which was prepared according to the methods in the examples; free compound of Formula (1).
The test samples were placed under conditions of 60° C., 40° C., RH 90%±5%, RH 75%±5%, 4500lx±500lx or UV-Vis for 10 days, […], and the samples were tested for relevant substances and XRD pattern; and the results were compared with those of a sample on the 0th day.
Determination of the relevant substances: the determination was carried out in accordance with High Performance Liquid Chromatography in Appendix V D in Pharmacopoeia of the People's Republic of China (2010) (Volume II).
XRD measurement: the measurement was carried out in accordance with X-Ray Powder Diffraction in Appendix IX F in Pharmacopoeia of the People's Republic of China (2010) (Volume II).

[1] = 0th day (baseline, listed under 60° C.)
[2] = UV-Vis, total illumination ≥1.2 × 10^6 Lux·h, near ultraviolet energy ≥200 w·h/m^2
[3] = conditions that meet the illumination requirement (UV-Vis)

SMILES: O=C(O)[C@@H]1CCCN1.O=C(O)[C@@H]1CCCN1.OC[C@H]1O[C@@H](c2ccc(Cl)c(Cc3ccc(O[C@H]4C[C@@H]5C[C@@H]5C4)cc3)c2)[C@H](O)[C@@H](O)[C@@H]1O [crystalline Form I]
- Relevant substances (%) [1]: 0.60%
- Relevant substances (%) (40° C., 5th day): 0.67%
- Relevant substances (%) (40° C., 10th day): 0.65%
- Relevant substances (%) (60° C., 5th day): 0.68%
- Relevant substances (%) (60° C., 10th day): 0.62%
- Relevant substances (%) (4500 lx ± 500 lx, 5th day): 0.66%
- Relevant substances (%) (4500 lx ± 500 lx, 10th day): 0.71%
- Relevant substances (%) (RH75% ± 5%, 5th day): 0.66%
- Relevant substances (%) (RH75% ± 5%, 10th day): 0.64%
- Relevant substances (%) (RH90% ± 5%, 5th day): 0.65%
- Relevant substances (%) (RH90% ± 5%, 10th day): 0.63%
- Stability compared with the free base of the compound (overall conclusion of the stability test): better stability
- Change of property, relevant substances and XRD pattern (temperature, humidity or light conditions for 10 days): did not change significantly

SMILES: OC[C@H]1O[C@@H](c2ccc(Cl)c(Cc3ccc(O[C@H]4C[C@@H]5C[C@@H]5C4)cc3)c2)[C@H](O)[C@@H](O)[C@@H]1O [free compound of Formula (1), (2S,3R,4R,5S,6R)-2-(3-(4-(((1R,3s,5S)-bicyclo[3.1.0]hexan-3-yl)oxy)benzyl)-4-chlorophenyl)-6-(hydroxymethyl)tetrahydro-2H-pyran-3,4,5-triol]
- Relevant substances (%) [1]: 1.35%
- XRD [1]: Amorphism
- Relevant substances (%) (40° C., 10th day): 1.44%
- XRD (40° C., 10th day): Amorphism
- Relevant substances (%) (60° C., 10th day): 1.43%
- XRD (60° C., 10th day): Amorphism
- XRD (RH75% ± 5%, 6th day): Amorphism
- Hygroscopicity under humidity conditions (RH90% ± 5% / RH75% ± 5%, 6th day): significant hygroscopic deliquescence
- XRD (RH90% ± 5%, 6th day): Amorphism
- Properties [2]: Tawny powder
- Relevant substances (%) [2]: 9.91%
- XRD [2]: Amorphism
- Change of property of the sample [3]: changed from an almost white powder to a tawny powder
- Increase of relevant substances relative to 0th day [3]: 8.56%
- Change of amount of relevant substances (temperature conditions (60° C., 40° C.) for 10 days): increased
